Data published in US12269805B2, “Inhibitors of platelet function and methods for use of the same” (THE REGENTS OF THE UNIVERSITY OF MICHIGAN, priority 2018, dated 2025).
Like-named read-outs stand apart in the source and are kept apart here. Blank lines part the entries; values can stand above or below the compound they belong to.

What was measured:
thrombus formation = conditions: cited from earlier work
[1] = Pharmacokinetic study: compound concentration in mouse blood plasma after PO and IV administration; type: in vivo, mice; conditions: for Concentration in Plasma, Mouse 2: value marked as outlier; for concentration at 2 h / concentration at 4 h / concentration at 7 h: mouse, plasma, 30 mg/kg
Protocol: The blood plasma concentration of compound A3 in mice was determined following per os, oral compound administration (“PO”) and intravenous (“IV”) administration
Calibration curve. The concentration range was evaluated from 1-5000 ng/ml for compound A3. The curve was built with linear regression with weighing (1/X2). The linear regression analysis was performed by plotting the peak area ratio (y) against the concentration (x) in ng/mL.
Instrument Conditions. The LC-MS and mass spectrometry conditions for the compounds tested are shown below.
Results. The individual and average compound A3 concentration-time data for IV and PO dosed groups are listed in Table 1, and graphically presented in FIG. 1.

[2] = system: phospho-VASP (serine 157) in washed human platelets; test: Vasodilator-stimulated phosphoprotein phosphorylation in human platelets (Western blot); type: cell-based; conditions: washed human platelets treated for one minute; 5 nm to 20 μM tested
Protocol: Citrated whole blood was centrifuged (200 g for 10 min) to isolate platelet-rich plasma. Platelet-rich plasma was treated with acid citrate dextrose (2.5% sodium citrate, 1.5% citric acid, 2.0% D-glucose) and apyrase (0.02 U/mL), and then centrifuged (2000 g for 10 mins) to pellet the platelets. Platelets were resuspended at 3.0×10^8 platelets/mL in Tyrode's buffer (10 mM HEPES, 12 mM NaHCO3, 127 mM NaCl, 5 mM KCl, 0.5 mM NaH2PO4, 1 mM MgCl2, and 5 mM glucose) unless otherwise stated.
Washed platelets were treated with forskolin (0.5 μM), 12-HETre (20 μM), or compound A3 (5 nm, 10 nm, 25 nm, 50 nm, 100 n, 250 nm, 1 μM, 5 μM, 10 μM, and 20 μM) for one minute, then directly lysed in 5× Laemmli sample buffer (1.5 M Tris-HCl, pH 6.8, glycerol, 5% β-mercaptoethanol, 10% sodium dodecyl sulfate (SDS), and 1% bromophenol blue). The samples were boiled for five minutes and then run on a 10% SDS-PAGE gel. The levels of total and phospho-VASP (serine 157) were quantified by Western Blot using an Odyssey imaging system (LI-CoR). […] Compound A3 induced VASP phosphorylation at a concentration as low as 10 nm.

platelets = conditions: cited from earlier work

Structure (SMILES): CCCCC/C=C\C[C@H](O)/C=C/C=C\CCCCCCC(=O)O [Compound 12-HETrE, 12(S)-hydroxyeicosatetrienoic acid]
Thrombus formation following vessel injury (thrombus formation; irrespective of 12-LOX expression): potently impaired thrombus formation

Concentration in Plasma, Mouse 2 ([1]; PO 30 mg/kg, 2 h): *809.0 ng/ml | Concentration in Plasma, Mouse 2 ([1]; PO 30 mg/kg, 4 h): *812.7 ng/ml | concentration at 2 h ([1]; iv, IV 30 mg/kg, 2 h, n=3, read-out: Concentration in Plasma, Mean): 164 ng/mL | concentration at 2 h ([1]; iv, IV 30 mg/kg, 2 h, read-out: Concentration in Plasma, Mouse 1): 203 ng/mL | concentration at 2 h ([1]; iv, IV 30 mg/kg, 2 h, read-out: Concentration in Plasma, Mouse 2): 158 ng/mL | concentration at 2 h ([1]; iv, IV 30 mg/kg, 2 h, read-out: Concentration in Plasma, Mouse 3): 131 ng/mL | concentration at 4 h ([1]; iv, IV 30 mg/kg, 4 h, n=3, read-out: Concentration in Plasma, Mean): 106 ng/mL | concentration at 4 h ([1]; iv, IV 30 mg/kg, 4 h, read-out: Concentration in Plasma, Mouse 1): 135 ng/mL | concentration at 4 h ([1]; iv, IV 30 mg/kg, 4 h, read-out: Concentration in Plasma, Mouse 2): 80.3 ng/mL | concentration at 4 h ([1]; iv, IV 30 mg/kg, 4 h, read-out: Concentration in Plasma, Mouse 3): 102 ng/mL | concentration at 7 h ([1]; iv, IV 30 mg/kg, n=3, read-out: Concentration in Plasma, Mean): 97.6 ng/mL | concentration at 7 h ([1]; iv, IV 30 mg/kg, read-out: Concentration in Plasma, Mouse 1): 123 ng/mL | concentration at 7 h ([1]; iv, IV 30 mg/kg, read-out: Concentration in Plasma, Mouse 2): 76.9 ng/mL | concentration at 7 h ([1]; iv, IV 30 mg/kg, read-out: Concentration in Plasma, Mouse 3): 92.7 ng/mL | concentration at 2 h ([1]; po, PO 30 mg/kg, 2 h, outlier left out, read-out: Concentration in Plasma, Mean): 119 ng/mL | concentration at 2 h ([1]; po, PO 30 mg/kg, 2 h, read-out: Concentration in Plasma, Mouse 1): 186 ng/mL | concentration at 2 h ([1]; po, PO 30 mg/kg, 2 h, read-out: Concentration in Plasma, Mouse 3): 52.5 ng/mL | concentration at 4 h ([1]; po, PO 30 mg/kg, 4 h, outlier left out, read-out: Concentration in Plasma, Mean): 34.5 ng/mL | concentration at 4 h ([1]; po, PO 30 mg/kg, 4 h, read-out: Concentration in Plasma, Mouse 1): 46.5 ng/mL | concentration at 4 h ([1]; po, PO 30 mg/kg, 4 h, read-out: Concentration in Plasma, Mouse 3): 22.5 ng/mL | concentration at 7 h ([1]; po, PO 30 mg/kg, n=3, read-out: Concentration in Plasma, Mean): 28.3 ng/mL | concentration at 7 h ([1]; po, PO 30 mg/kg, read-out: Concentration in Plasma, Mouse 1): 46.3 ng/mL | concentration at 7 h ([1]; po, PO 30 mg/kg, read-out: Concentration in Plasma, Mouse 2): 19.1 ng/mL | concentration at 7 h ([1]; po, PO 30 mg/kg, read-out: Concentration in Plasma, Mouse 3): 19.3 ng/mL
Structure (SMILES): CC(C)N(CCCCSc1n[nH]c(=O)[nH]1)c1cnc(-c2ccccc2)c(-c2ccccc2)n1 [Compound A3, 5-((4-((5,6-diphenylpyrazin-2-yl)(isopropyl)amino)butyl)thio)-2,4-dihydro-3H-1,2,4-triazol-3-one]
Lowest concentration that induced VASP phosphorylation [2]: 10 nm

Structure (SMILES): CCCCC/C=C\C/C=C\C/C=C\CCCCCCC(=O)O [DGLA, Dihomo-γ-linolenic acid]
Platelet aggregation ex vivo (platelets): inhibit platelet aggregation ex vivo | Thrombus formation (thrombus formation; 12-LOX−/− mice): unable to inhibit thrombus formation | Platelet thrombus formation in vivo (thrombus formation; following an insult to the vessel wall): inhibited platelet thrombus formation in vivo
